Test results: ChEMBL document CHEMBL4507276 (2021)

How the values were obtained:
[1] = biological target: 5-hydroxytryptamine receptor 1E (Homo sapiens) (UniProt P28566); conditions: Compound concentration 10.0 uM
[2] = biological target: Tyrosine-protein kinase HCK (Homo sapiens) (UniProt P08631); experiment: HCK Invitrogen selectivity data (BI); conditions: Compound concentration 3.0 uM
[3] = biological target: cAMP-dependent protein kinase catalytic subunit alpha (Homo sapiens) (UniProt P17612); experiment: PRKACA Invitrogen selectivity data (BI); conditions: Compound concentration 3.0 uM
[4] = biological target: Cholecystokinin receptor type A (Homo sapiens) (UniProt P32238); experiment: CCKA/H Cerep selectivity data (BI); conditions: Compound concentration 20.0 uM
[5] = biological target: Somatostatin receptor type 4 (Homo sapiens) (UniProt P31391); experiment: SST4_HU Cerep selectivity data (BI); conditions: Compound concentration 20.0 uM
[6] = biological target: Insulin receptor (Homo sapiens) (UniProt P06213); experiment: IRK(INSR)_CE Cerep selectivity data (BI); conditions: Compound concentration 20.0 uM
[7] = biological target: Serine/threonine-protein kinase MARK1 (Homo sapiens) (UniProt Q9P0L2); experiment: MARK1 Invitrogen selectivity data (BI); conditions: Compound concentration 3.0 uM
[8] = biological target: MAP kinase-interacting serine/threonine-protein kinase 1 (Homo sapiens) (UniProt Q9BUB5); experiment: MKNK1 Invitrogen selectivity data (BI); conditions: Compound concentration 3.0 uM
[9] = biological target: T1, 5-hydroxytryptamine receptor 3A (Homo sapiens) (UniProt P46098); experiment: 5HT3/H Cerep selectivity data (BI); conditions: Compound concentration 20.0 uM
T1 sequence (whole entry): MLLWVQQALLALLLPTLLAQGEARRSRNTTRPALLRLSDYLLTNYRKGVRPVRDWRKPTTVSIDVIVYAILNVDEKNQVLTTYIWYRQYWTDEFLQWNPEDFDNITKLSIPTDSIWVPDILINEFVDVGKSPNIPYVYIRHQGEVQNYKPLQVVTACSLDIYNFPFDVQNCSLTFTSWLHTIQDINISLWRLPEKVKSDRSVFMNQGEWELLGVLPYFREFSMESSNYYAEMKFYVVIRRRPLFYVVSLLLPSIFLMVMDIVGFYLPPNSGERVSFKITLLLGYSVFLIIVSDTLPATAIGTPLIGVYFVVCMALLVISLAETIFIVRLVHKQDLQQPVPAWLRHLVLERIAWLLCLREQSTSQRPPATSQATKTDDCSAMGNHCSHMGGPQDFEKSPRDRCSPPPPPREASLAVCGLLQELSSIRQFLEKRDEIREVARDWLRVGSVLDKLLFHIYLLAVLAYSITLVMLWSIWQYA

[10] = biological target: Serine/threonine-protein kinase SIK2 (Homo sapiens) (UniProt Q9H0K1); experiment: SNF1LK2 Invitrogen selectivity data (BI); conditions: Compound concentration 3.0 uM
[11] = biological target: T2, Serine/threonine-protein kinase DCLK2 (Homo sapiens) (UniProt Q8N568); experiment: DCAMKL2 Invitrogen selectivity data (BI); conditions: Compound concentration 3.0 uM
T2 sequence (whole entry): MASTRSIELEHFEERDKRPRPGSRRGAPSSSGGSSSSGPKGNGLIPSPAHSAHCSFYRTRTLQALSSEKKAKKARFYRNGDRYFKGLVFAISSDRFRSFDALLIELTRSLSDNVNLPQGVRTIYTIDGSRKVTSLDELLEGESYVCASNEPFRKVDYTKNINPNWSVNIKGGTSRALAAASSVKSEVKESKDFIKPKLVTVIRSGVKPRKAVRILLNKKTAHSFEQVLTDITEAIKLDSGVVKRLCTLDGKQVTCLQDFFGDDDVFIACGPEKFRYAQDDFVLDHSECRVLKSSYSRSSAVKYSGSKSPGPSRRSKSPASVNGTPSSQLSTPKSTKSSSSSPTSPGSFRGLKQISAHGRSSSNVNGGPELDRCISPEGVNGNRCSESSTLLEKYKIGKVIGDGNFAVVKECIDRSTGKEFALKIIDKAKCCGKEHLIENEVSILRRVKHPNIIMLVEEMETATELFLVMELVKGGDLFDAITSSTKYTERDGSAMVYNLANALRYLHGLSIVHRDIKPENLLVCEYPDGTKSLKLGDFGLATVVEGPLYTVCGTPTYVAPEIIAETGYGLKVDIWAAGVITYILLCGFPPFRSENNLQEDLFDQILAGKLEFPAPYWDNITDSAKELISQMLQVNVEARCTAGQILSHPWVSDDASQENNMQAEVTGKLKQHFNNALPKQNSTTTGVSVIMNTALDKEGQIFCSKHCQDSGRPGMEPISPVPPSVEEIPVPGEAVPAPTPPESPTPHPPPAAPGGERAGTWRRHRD

[12] = biological target: T3, Alpha-2A adrenergic receptor (Homo sapiens) (UniProt P08913); experiment: ALPHA2A/H Eurofins-Panlabs selectivity data (BI); conditions: Compound concentration 10.0 uM
T3 sequence (whole entry): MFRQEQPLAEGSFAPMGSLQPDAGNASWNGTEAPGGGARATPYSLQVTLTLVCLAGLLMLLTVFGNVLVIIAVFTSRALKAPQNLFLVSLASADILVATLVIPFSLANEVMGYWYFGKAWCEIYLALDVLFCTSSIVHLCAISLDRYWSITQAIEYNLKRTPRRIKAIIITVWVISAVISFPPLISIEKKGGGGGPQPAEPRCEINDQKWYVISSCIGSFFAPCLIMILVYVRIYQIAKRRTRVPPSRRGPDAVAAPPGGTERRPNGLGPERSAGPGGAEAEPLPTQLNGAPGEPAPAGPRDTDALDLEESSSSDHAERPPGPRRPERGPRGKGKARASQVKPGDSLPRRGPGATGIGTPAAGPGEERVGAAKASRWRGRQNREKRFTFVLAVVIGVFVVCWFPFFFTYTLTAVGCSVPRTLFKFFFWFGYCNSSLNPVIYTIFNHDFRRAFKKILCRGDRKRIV

[13] = biological target: T4, Inhibitor of nuclear factor kappa-B kinase subunit epsilon (Homo sapiens) (UniProt Q14164); experiment: IKBKE Invitrogen selectivity data (BI); conditions: Compound concentration 3.0 uM
T4 sequence (whole entry): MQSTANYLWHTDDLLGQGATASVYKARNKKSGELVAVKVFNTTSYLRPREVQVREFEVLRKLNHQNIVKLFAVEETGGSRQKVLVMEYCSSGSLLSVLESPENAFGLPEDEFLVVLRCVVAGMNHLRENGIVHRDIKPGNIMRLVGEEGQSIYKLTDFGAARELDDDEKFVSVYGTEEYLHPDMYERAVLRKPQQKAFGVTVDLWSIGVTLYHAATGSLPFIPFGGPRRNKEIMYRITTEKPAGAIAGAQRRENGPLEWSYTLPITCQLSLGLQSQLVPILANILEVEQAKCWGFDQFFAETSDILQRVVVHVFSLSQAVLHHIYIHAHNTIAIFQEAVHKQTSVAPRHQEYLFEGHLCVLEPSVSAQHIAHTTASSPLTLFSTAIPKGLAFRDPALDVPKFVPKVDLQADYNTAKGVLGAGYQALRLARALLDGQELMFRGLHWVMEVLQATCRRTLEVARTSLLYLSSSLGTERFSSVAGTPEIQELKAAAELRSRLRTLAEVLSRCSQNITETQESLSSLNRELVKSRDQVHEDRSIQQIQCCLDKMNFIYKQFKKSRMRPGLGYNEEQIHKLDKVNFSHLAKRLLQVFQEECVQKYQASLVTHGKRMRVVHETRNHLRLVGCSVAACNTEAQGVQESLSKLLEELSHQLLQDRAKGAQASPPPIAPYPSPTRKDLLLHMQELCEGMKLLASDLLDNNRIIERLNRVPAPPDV

5-hydroxytryptamine receptor 1E (Homo sapiens), sequence (P28566 whole entry): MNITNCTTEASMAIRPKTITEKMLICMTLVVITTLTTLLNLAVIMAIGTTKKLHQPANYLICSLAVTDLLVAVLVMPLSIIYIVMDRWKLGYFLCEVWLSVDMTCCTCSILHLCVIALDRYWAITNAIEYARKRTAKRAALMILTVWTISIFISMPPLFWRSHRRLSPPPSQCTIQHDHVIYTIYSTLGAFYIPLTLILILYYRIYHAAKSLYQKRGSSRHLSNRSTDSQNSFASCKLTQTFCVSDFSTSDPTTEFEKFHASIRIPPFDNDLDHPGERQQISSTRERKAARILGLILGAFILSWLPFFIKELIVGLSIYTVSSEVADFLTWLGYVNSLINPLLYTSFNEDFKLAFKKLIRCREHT
Serine/threonine-protein kinase MARK1 (Homo sapiens), sequence (Q9P0L2 whole entry, looked up): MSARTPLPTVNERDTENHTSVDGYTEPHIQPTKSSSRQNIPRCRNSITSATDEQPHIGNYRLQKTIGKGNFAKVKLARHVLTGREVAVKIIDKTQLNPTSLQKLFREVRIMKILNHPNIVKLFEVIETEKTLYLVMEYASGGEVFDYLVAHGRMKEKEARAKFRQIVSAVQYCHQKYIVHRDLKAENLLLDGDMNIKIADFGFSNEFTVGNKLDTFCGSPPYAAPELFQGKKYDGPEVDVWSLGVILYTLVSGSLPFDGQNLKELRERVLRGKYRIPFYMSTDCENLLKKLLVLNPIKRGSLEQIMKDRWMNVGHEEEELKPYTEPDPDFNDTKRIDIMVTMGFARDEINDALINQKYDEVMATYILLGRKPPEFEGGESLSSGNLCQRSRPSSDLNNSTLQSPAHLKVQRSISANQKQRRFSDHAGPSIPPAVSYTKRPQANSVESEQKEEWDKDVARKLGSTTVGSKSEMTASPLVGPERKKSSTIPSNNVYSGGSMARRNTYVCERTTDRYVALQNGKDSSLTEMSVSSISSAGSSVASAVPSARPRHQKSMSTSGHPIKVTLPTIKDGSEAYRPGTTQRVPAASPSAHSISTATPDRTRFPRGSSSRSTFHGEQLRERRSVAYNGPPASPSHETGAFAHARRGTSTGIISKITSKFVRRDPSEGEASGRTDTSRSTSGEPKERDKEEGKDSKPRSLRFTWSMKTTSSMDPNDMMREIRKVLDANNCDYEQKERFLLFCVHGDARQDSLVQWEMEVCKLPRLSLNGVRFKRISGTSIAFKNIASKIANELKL
Somatostatin receptor type 4 (Homo sapiens), sequence (P31391 whole entry): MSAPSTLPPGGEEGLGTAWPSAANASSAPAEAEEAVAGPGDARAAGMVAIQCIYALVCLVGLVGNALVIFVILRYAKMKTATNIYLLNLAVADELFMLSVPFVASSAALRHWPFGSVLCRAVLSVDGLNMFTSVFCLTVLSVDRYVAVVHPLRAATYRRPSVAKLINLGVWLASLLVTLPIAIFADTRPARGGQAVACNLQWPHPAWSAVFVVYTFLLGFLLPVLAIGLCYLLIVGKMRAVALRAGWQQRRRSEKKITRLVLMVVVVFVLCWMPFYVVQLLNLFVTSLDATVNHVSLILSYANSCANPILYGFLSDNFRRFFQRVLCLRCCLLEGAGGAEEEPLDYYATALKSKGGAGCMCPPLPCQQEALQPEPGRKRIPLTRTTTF
Serine/threonine-protein kinase SIK2 (Homo sapiens), sequence (Q9H0K1 whole entry, looked up): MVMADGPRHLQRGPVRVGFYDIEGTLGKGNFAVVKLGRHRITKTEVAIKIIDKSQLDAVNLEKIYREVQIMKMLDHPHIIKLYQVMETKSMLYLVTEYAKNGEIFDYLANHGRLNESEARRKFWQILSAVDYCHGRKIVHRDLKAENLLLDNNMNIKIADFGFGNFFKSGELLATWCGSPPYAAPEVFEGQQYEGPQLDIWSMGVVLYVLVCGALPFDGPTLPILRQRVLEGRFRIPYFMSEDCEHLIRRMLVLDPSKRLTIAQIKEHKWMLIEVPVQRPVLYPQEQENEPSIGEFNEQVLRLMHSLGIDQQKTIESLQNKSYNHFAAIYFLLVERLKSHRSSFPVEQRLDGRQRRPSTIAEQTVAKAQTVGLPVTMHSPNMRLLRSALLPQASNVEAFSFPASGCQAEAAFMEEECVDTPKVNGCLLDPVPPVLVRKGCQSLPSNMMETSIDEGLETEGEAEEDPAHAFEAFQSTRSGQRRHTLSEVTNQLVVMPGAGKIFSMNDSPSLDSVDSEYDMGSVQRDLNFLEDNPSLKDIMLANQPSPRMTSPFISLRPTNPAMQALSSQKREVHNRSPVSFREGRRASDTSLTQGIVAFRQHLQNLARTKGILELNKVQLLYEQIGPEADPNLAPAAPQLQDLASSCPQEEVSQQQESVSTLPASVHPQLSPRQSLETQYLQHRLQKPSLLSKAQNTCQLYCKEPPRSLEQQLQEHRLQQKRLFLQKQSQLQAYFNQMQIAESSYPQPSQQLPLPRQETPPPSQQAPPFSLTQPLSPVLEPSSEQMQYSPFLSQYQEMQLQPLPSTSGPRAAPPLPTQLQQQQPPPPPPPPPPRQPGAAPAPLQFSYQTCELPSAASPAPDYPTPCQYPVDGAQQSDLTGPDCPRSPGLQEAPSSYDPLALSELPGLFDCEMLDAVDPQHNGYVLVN
Tyrosine-protein kinase HCK (Homo sapiens), sequence (P08631 2-526 limits assumed): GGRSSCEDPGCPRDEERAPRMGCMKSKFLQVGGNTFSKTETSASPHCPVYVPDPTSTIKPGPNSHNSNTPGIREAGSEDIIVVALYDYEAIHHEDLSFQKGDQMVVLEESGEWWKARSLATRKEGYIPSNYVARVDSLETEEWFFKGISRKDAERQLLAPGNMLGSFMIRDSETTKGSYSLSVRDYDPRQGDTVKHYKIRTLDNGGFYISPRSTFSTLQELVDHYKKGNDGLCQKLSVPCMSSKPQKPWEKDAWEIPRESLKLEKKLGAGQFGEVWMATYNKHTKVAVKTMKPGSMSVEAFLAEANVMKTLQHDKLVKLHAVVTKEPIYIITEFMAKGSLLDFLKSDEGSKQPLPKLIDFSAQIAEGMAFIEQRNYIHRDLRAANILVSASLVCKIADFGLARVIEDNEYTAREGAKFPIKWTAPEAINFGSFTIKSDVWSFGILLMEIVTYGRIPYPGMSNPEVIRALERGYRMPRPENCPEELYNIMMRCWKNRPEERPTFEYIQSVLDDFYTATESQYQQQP
Insulin receptor (Homo sapiens), sequence (P06213 28-758 limits assumed): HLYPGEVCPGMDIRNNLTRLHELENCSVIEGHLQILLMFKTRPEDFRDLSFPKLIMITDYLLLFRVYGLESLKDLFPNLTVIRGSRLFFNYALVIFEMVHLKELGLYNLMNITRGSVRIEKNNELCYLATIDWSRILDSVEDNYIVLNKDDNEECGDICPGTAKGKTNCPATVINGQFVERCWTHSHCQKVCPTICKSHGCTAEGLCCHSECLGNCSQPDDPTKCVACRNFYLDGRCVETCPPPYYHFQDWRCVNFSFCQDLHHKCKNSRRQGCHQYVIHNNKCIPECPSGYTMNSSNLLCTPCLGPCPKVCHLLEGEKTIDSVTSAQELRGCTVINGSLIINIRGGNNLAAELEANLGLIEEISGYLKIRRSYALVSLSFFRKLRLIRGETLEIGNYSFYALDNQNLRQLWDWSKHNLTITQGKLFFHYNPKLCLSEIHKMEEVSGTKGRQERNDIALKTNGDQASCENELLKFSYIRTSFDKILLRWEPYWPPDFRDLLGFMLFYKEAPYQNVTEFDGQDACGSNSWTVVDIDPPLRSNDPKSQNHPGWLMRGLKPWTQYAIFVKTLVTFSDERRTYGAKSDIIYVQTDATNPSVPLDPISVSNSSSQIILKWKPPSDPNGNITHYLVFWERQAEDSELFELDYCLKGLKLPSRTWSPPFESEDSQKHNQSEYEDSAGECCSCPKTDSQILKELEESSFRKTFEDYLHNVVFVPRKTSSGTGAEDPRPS
Insulin receptor (Homo sapiens), sequence (P06213 763-1382 limits assumed): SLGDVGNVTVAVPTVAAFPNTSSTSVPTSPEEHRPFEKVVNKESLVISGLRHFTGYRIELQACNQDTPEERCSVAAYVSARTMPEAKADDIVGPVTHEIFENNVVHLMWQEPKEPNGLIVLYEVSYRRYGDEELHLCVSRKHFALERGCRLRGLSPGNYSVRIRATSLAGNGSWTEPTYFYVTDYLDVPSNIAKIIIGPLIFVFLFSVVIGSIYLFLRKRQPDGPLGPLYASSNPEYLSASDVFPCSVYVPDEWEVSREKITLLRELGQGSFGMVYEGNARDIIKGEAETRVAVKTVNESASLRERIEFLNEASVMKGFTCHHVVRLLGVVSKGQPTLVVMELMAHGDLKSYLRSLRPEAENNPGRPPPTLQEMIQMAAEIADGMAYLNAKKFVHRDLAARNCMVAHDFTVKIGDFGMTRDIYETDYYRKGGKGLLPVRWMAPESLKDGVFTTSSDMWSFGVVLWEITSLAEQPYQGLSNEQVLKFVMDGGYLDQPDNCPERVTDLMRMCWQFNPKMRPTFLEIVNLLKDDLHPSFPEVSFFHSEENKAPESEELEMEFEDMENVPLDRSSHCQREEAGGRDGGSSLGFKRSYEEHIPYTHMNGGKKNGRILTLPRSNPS
Cholecystokinin receptor type A (Homo sapiens), sequence (P32238 whole entry): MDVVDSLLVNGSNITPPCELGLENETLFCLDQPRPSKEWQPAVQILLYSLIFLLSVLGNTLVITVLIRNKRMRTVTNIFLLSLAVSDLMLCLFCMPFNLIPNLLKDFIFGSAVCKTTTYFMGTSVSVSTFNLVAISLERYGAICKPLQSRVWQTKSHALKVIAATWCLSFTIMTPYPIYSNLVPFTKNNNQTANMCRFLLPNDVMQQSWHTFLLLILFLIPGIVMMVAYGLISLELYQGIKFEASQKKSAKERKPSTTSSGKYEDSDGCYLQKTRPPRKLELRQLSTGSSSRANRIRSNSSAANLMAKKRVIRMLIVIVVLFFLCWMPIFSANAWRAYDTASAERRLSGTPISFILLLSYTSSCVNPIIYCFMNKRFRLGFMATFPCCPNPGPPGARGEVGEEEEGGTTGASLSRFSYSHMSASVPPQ

CN(C)C(=O)Cn1cc(-c2nc(C3(c4ccc(-c5cnc(N)nc5)cc4)CC3)no2)cn1 [BI 0153]
inactive: inhibition [1] -7.33%

CN(C)C(=O)Cn1cc(-c2nc([C@@](C)(c3ccc(-c4cnc(N)nc4)cc3)C3CC3)no2)cn1 [BI 665915]
inactive: residual activity [2] 85% | residual activity [3] 104% | residual activity [4] 113% | residual activity [5] 146% | residual activity [6] 94% | residual activity [7] 98% | residual activity [8] 99% | residual activity [9] 100% | residual activity [10] 97.5% | residual activity [11] 97% | residual activity [12] 105% | residual activity [13] 99.5%
